Results from patent publication EP4491649A1, “DUAL CURABLE OLIGOMERS” (ARKEMA FRANCE, priority 2023, dated 2025).

How the values were obtained:
Type in all cases: physicochemical
[1] = Epoxy Equivalent Weight (EEW), ASTM D1763-1981
Method: The EEW was measured in accordance with ASTM D1763-1981.

[2] = Refractive index (RX-7000 α, ATAGO)
Method: The refractive index of the oligomers was measured using a RX-7000 α from AT AGO at a temperature of 25°C.

[3] = Storage stability (thermal test, viscosity before/after 48 hours at 65°C, alone or mixed with ADH)
Method: The storage stability tests were performed by placing the oligomer to be tested, alone or mixed with ADH (as a curing agent), at 65°C for 48 hours (thermal test), and measuring their viscosity (cps@60C).

[4] = Viscosity of the oligomers (Brookfield RVDV-II+ Pro, #28 spindle); details: 20 rpm
Method: The viscosity of the oligomers was measured using a Brookfield RVDV-II+ Pro instrument at a temperature of 60°C using a #28 spindle and a rotational speed of 20 rpm. Moreover, the viscosity of the oligomers was measured with a Brookfield RVDV-II+ Pro instrument at a temperature of 25°C using a #28 spindle and a rotational speed of 10 rpm.

[5] = Mechanical performance of cured compositions (tensile strength, modulus, elongation at break, ASTM D638)
Method: These mechanical properties were measured in accordance with ASTM D638.
The mechanical performance tests were performed on compositions comprising the oligomer to be tested mixed with SR506, photoinitiators and/or curing agents, as detailed in Tables 4, 5 and 6 below.
Tests UV + Thermal cure: 80 wt.% of oligomers were mixed with 20 wt. % of SR506. To this mixture were added 3 wt.% of TPO and 1 wt.% of 2E4MZ (based on the total weight of oligomers + SR506).
Tests UV cure: 80 wt.% of oligomers were mixed with 20 wt. % of SR506. To this mixture was added 3 wt.% of TPO (based on the total weight of oligomers + SR506).
Tests Thermal cure: 80 wt.% of oligomers were mixed with 20 wt.% of SR506. To this mixture was added 1 wt.% of 2E4MZ (based on the total weight of oligomers + SR506).

[6] = Thermal Cure, 80 wt.% oligomer + 20 wt.% SR506, then 1 wt.% 2E4MZ
[7] = UV + Thermal Cure, 80 wt.% oligomer + 20 wt.% SR506, then 3 wt.% TPO + 1 wt.% 2E4MZ
[8] = UV Cure, 80 wt.% oligomer + 20 wt.% SR506, then 3 wt.% TPO

- EEW ([1]; Table 2): 1020 g/ep
- EEW ([1]; synthesis text): 1020 g/eq
- Refractive Index (25°C) [2]: 1.5633
- viscosity change after storage ([3]; 65°C for 48h, not mixed with ADH): no significant viscosity change
- Viscosity (cps@60C) After storage 48h, 65°C ([3]; after storage 48h at 65°C, measured at 60C): 2,450 cps
- Viscosity (cps@60C) Initial ([3]; initial, measured at 60C): 2,390 cps
- state of composition after storage ([3]; mixed with 20 wt.% ADH, 48h at 65°C): becomes gelled
- Viscosity (60°C) [4]: 2390 mPa.s
- Viscosity (60°C) ([4]; listed as Comparative oligomer): around 2390 mPa.s
- Elongation at break (%) [5, 6]: 2.095%
- Tensile modulus [5, 6]: 2,037
- Tensile strength (Mpa) [5, 6]: 43.33 Mpa
- Elongation at break (%) [5, 7]: 1.86%
- Tensile modulus [5, 7]: 4027
- Tensile strength (Mpa) [5, 7]: 73.39 Mpa
- Elongation at break (%) [5, 8]: 2.32%
- Tensile modulus [5, 8]: 2722
- Tensile strength (Mpa) [5, 8]: 62.9 Mpa
Compound: C=CC(=O)OCC(O)COc1ccc(C(C)(C)c2ccc(OCC3CO3)cc2)cc1 (stereo not drawn) [Reference]
